From US10118916B2, “Modulators of cystic fibrosis transmembrane conductance regulator protein” (AbbVie S.à.r.l., priority 2016, dated 2018) come the findings set out here.

Experiment [1] addresses T1, F508delCFTR (Homo sapiens, UniProt P13569, DEL508-508).
T1 construct: expressed in transfected cells; host or cells: CFBE41o- (human lung derived epithelial cell line), doxycycline-inducible
Kind of experiment: Cell Surface Expression-Horse Radish Peroxidase (CSE-HRP) assay. It counts as cell-based. Particulars: CFBE41o-F508delCFTR-HRP cells; for EC50: F508delCFTR cell surface expression, luminescence, 18-24 hours at 33° C., highest concentration 20 μM; for Maximum % activity: maximum at any tested concentration, normalized to on-plate positive control (3 μM). The gist of the method: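 CFBE41o- cells expressing doxycycline-induced (0.5 μg/mL, 72 h at 37 °C) F508delCFTR with HRP in the fourth extracellular loop; compounds 8 points, 3-fold from 20 μM, 18-24 h at 33 °C. Surface HRP measured by luminol luminescence, normalised to DMSO and 3 μM reference corrector; EC50 from variable-slope sigmoidal fit of triplicate plates.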

The target of experiment [2] is T2, F508del/F508del CFTR (Homo sapiens, UniProt P13569, DEL508-508).
T2 construct: cells isolated from CF patients with the homozygous mutation; endogenous in cells; host or cells: primary human bronchial epithelial (hBE) cells from F508del/F508del CF patients
T2 sequence (P13569 with tags, fused parts or gaps DEL508-508): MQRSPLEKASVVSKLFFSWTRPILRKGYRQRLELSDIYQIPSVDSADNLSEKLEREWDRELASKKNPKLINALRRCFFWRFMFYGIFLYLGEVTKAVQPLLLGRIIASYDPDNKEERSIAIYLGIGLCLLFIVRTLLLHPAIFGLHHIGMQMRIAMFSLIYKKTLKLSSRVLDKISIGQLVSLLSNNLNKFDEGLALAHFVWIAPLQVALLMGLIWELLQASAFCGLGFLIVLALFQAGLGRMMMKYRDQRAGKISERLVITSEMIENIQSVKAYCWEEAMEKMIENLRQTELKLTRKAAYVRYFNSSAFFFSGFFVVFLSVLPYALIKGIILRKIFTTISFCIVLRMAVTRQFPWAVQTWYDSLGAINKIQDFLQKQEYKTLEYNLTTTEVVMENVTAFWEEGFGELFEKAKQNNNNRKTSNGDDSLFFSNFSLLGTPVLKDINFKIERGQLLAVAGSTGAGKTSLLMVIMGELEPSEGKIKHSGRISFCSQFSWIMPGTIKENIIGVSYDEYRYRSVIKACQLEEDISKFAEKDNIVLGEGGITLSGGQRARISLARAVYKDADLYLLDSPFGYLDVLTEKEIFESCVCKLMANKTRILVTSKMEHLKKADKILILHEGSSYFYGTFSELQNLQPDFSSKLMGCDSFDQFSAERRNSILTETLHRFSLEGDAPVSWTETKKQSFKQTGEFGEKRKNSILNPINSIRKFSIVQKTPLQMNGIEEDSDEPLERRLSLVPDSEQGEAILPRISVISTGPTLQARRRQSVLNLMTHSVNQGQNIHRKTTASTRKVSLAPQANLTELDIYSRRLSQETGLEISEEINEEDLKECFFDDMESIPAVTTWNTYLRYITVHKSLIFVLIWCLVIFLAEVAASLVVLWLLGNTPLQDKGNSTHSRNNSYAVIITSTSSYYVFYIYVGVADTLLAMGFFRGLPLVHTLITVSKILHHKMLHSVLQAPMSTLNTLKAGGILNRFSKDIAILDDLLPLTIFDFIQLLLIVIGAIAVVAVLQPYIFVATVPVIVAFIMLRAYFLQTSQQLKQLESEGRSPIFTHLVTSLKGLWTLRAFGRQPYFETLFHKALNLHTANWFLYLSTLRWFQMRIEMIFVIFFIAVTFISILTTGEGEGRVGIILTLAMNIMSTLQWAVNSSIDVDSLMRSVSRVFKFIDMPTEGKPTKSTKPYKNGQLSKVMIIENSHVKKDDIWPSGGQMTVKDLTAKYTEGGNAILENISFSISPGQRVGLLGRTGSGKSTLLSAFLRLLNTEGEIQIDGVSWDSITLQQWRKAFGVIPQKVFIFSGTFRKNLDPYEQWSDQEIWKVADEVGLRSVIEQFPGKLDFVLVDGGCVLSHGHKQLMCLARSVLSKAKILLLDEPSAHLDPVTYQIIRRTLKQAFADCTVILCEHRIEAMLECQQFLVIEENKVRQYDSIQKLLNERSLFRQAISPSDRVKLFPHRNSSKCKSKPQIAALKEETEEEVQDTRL
Kind of experiment: Transepithelial Clamp Circuit (TECC-24) conductance assay on primary human bronchial epithelial cells (hBE-TECC). The following applies: for EC50: equivalent short circuit current, 18-24 hours at 37° C., with control potentiator; for Maximum % activity: relative to positive control (3 μM) coupled with control potentiator. It is filed as cell-based. The text has this:
Transepithelial Clamp Circuit on Human Bronchial Epithelial Cells Conductance Assay:
A cell based assay using the primary human bronchial epithelial cells (hBE) was used as a secondary assay to test novel F508delCFTR correctors for their activity on primary hBE cells with F508del/F508del CFTR mutation. The assay used a TECC-24 (Transepithelial Clamp Circuit for 24 wells) instrument that measures the functionality of the mutated channel by measuring the equivalent short circuit current (Ieq) generated by the polarized epithelial cells. The instrument works by measuring the transepithelial potential difference (Vt) and transepithelial resistance (Rt) in an open circuit format, and the Ieq is calculated by using Ohms law (Ieq=Vt/Rt). The assay was run in a 24-well format and all 24-wells were measured at the same time point giving a higher throughput for this assay.
Primary human bronchial epithelial (hBE) cells from F508del/F508delCFTR patients were expanded from 1×10^6 to 250×10^6 cells (Neuberger T, Burton B, Clark H and VanGoor F; Cystic Fibrosis, Methods in Mole Biol 741; eds. Amaral M D and Kunzelmann K, 2011). For this purpose, cells isolated from CF patients with the homozygous mutation were seeded onto 24 well Corning (Cat #3378) filter plates that were coated with 3T3 conditioned media and grown at an air-liquid interface for 35 days using an Ultroser® G supplemented differentiation media. Apical surface mucus was removed 72 hours before the experiment using 3 mM dithiothreitol (DTT) in phosphate buffered saline (PBS). The apical surface was washed again 24 hours before the experiment using PBS. The cells were incubated with the desired dose response of the corrector compounds 18-24 hours at 37° C., 5% CO2. The corrector compounds are only added on the basolateral side of the epithelial cells.
On the day of measuring the corrector activity on the TECC, the cells were switched into a bicarbonate and serum free F-12 Coon's medium and allowed to equilibrate for 30 minutes in a CO2 free incubator. At the time of measurement, the apical and basolateral sides of the filter were bathed with the F-12 Coon's modification media (with 20 mM 4-(2-hydroxyethyl)-1-piperazineethanesulfonic acid (HEPES), pH 7.4 (using 1 M tris(hydroxymethyl)aminomethane (Tris)), and the measurements were made at 36.5° C. Transepithelial voltage (Vt) and transepithelial resistance (Rt) were measured using a 24 channel transepithelial current clamp (TECC-24). Current responses to the sequential addition of benzamil (apical 6 μM addition; for inhibiting epithelial ENaC channel), forskolin (apical and basolateral 10 μM addition; for activating the CFTR channel), control potentiator (N-(3-carbamoyl-5,5,7,7-tetramethyl-4,7-dihydro-5H-thieno[2,3-c]pyran-2-yl)-1H-pyrazole-5-carboxamide; apical and basolateral 1 μM addition; for potentiating the CFTR channel) and bumetanide (basolateral 20 μM addition; for inhibiting the Na:2Cl:K co-transporter, an indirect measure of inhibiting the Cl— secretion driven by CFTR channel) were measured.
All plates contained negative controls (dimethyl sulfoxide, DMSO) which coupled with the control potentiator (N-(3-carbamoyl-5,5,7,7-tetramethyl-4,7-dihydro-5H-thieno[2,3-c]pyran-2-yl)-1H-pyrazole-5-carboxamide) sets the null response and positive controls (3 μM of 3-[(2R,4R)-4-({[1-(2,2-difluoro-1,3-benzodioxol-5-yl)cyclopropyl]carbonyl}amino)-7-methoxy-3,4-dihydro-2H-chromen-2-yl]benzoic acid) coupled with the control potentiator sets the 100% response to measure the correction of the mutated CFTR channel. The maximum percent activity is reported relative to the positive control value.
The % activity measured at each of the 6 test concentrations of the test compound was normalized to the on-plate positive control using the following formula: % activity=[(test compound response−DMSO response)/(positive control response−DMSO response)]*100 […]

T1 sequence (P13569 with tags, fused parts or gaps DEL508-508): as above

Consider `COc1ccc2c(c1)O[C@@H](c1cccc(C(=O)O)c1)C[C@H]2NC(=O)[C@@]1(C)CCc2cc(C)ccc21` (single isomer, unassigned) [Example 8], for which, in experiment [1], the EC50 was found to be 100 nM and the Maximum % activity is given as 91.3%. Moreover, in experiment [2], the EC50 was found to be 24 nM and the Maximum % activity is 85.6%.

As for `COc1ccc2c(c1)O[C@@H]([C@H]1CC[C@H](C(=O)O)CC1)C[C@H]2NC(=O)C1(c2ccc3c(c2)OC(F)(F)O3)CC1` [Example 11, trans-4-[(2R,4R)-4-{[1-(2,2-difluoro-2H-1,3-benzodioxol-5-yl)cyclopropane-1-carbonyl]amino}-7-methoxy-3,4-dihydro-2H-1-benzopyran-2-yl]cyclohexane-1-carboxylic acid], the EC50 is 310 nM in experiment [1] and 21 nM in experiment [2]. In addition, the Maximum % activity in experiment [1] worked out at 124.5%; in experiment [2] it was 104.3%.

As to `O=C(N[C@@H]1C[C@H]([C@H]2CC[C@H](C(=O)O)CC2)Oc2cc(OC(F)(F)F)ccc21)C1(c2ccc3c(c2)OC(F)(F)O3)CC1` [Example 13, trans-4-[(2R,4R)-4-{[1-(2,2-difluoro-2H-1,3-benzodioxol-5-yl)cyclopropane-1-carbonyl]amino}-7-(trifluoromethoxy)-3,4-dihydro-2H-1-benzopyran-2-yl]cyclohexane-1-carboxylic acid], in experiment [1], the EC50 was found to be 30 nM and the Maximum % activity is given as 124.0%. Moreover, in experiment [2], the concentration for a half-maximal effect (EC50) came out at 4 nM and the Maximum % activity was 117.5%.

`O=C(N[C@@H]1C[C@H]([C@H]2CC[C@@H](C(=O)O)CC2)Oc2cc(OC(F)F)ccc21)C1(c2ccc3c(c2)OC(F)(F)O3)CC1` [Example 15A, cis-4-[(2R,4R)-4-{[1-(2,2-difluoro-2H-1,3-benzodioxol-5-yl)cyclopropane-1-carbonyl]amino}-7-(difluoromethoxy)-3,4-dihydro-2H-1-benzopyran-2-yl]cyclohexane-1-carboxylic acid]: the values for the EC50 in experiment [1] and in experiment [2] were 530 nM and 573 nM, respectively. For the same compound, the figures for the Maximum % activity in experiment [1] and in experiment [2] were 94.7% and 92.0%, respectively.

For `O=C(N[C@@H]1C[C@H]([C@H]2CC[C@H](C(=O)O)CC2)Oc2cc(OC(F)F)ccc21)C1(c2ccc3c(c2)OC(F)(F)O3)CC1` [Example 15B, trans-4-[(2R,4R)-4-{[1-(2,2-difluoro-2H-1,3-benzodioxol-5-yl)cyclopropane-1-carbonyl]amino}-7-(difluoromethoxy)-3,4-dihydro-2H-1-benzopyran-2-yl]cyclohexane-1-carboxylic acid], the EC50 in experiment [1] was found to be 110 nM; in experiment [2], 30 nM. For the same compound, the Maximum % activity in experiment [1] came to 125.5%; in experiment [2], 109.6%.
